Data published in patent publication US12312378B2, “Glucosamine derivatives for the prevention or treatment of joint disorders” (RISEN (SUZHOU) PHARMA TECH CO., LTD., priority 2017, dated 2025).
“Also recorded” adds a separate entry of the source. Marks after values point to notes of the source that are not given here. Values belong to the compound of their own block, whether it stands above or below them.

Experiments:
[1] = Pharmacokinetic study in SD rats: plasma GlcNBu after oral gavage of test compound; format: in vivo, Sprague-Dawley (SD) rats; design: key: (—): not detected; conditions: Table 5: plasma GlcNBu after oral administration of the indicated compound, 0.93 mmol/kg
Experimental: A test compound is dissolved in water at a concentration determined by the desired dose and dosing volume for the specific animal to which the compound is to be administered. A calculated volume of dosing solution is administered to the animal (PO, SQ, IP, or IV). A blood sample is collected following administration of the test compound at specific time points (such as 0 minutes (min), 5 min, 10 min, 15 min, 30 min, 1 hour (h), 1.5 h, 2 h, 3 h, 4, 6 h, etc.). The blood sample is converted to a plasma sample using standard techniques. The plasma samples are analyzed to determine the concentration of the test compound and, in some cases, GlcNBu.
According to the above general procedure, SD rats were grouped randomly into groups of six (n=6). The test compound, GlcNBu or a compound provided herein, was administered to the animals by oral gavage at a dose of 0.93 mmol/kg. For illustration purposes, GlcNBu was given at an oral dose of 232 mg/kg (0.93 mmol/kg), and compound 16 was administered at an equal molar dose (0.93 mmol/kg, i.e., 362 mg/kg). At pre-set time points, blood was taken through orbital venous plexus extraction, and the samples were analyzed using LC/MS-MS to determine the GlcNBu concentration in the plasma.
In the figure, Curves labeled with -●- and -▴- represent plasma GlcNBu concentration following oral administration of GlcNBu (232 mg/kg, or 0.93 mmol/kg) and compound 16 ([…], or 0.93 mmol/kg), respectively. […] FIG. 2A and FIG. 2B show examples of other compounds of the invention, presented in plasma GlcNBu concentration versus time curves; a summary of pharmacokinetic parameters for these compounds is given in Table 4 and Table 5.

[2] = rats; data from i.v., i.p., and p.o. studies; cited from earlier work
[3] = tested on: destructive arthritis rat model; conditions: cited from earlier work
OVX rat = conditions: GlcNBu feeding in the OVX rat; cited from earlier work
[4] = tested on: MMT-induced model of osteoarthritis; experiment: Medial meniscus transection (MMT) model in rats; format: in vivo, rat; conditions: for Weight bearing (right paw, %), mean: G2, gavage 4 times every day
Source text: In the rat MMT model, the unilateral knee (right knee) was cleaned and prepped for surgery. An incision was made over the medial aspect of the femoro-tibial joint. The medial collateral ligament was exposed via blunt dissection and transected to reflect the meniscus toward the femur. A full thickness cut was made through the meniscus at its narrowest point. The joint space was returned to normal, and the skin was closed and the animal allowed to recover. For the present study, at second day post MMT induction animals, G1 and G2 animals were treatment with vehicle and test compound 16 respectively. Animals were dosed 4 times every day, and were dosed by gavage for 4 weeks.

MIA-induced OA rat model = experiment: Monosodium iodoacetate-induced osteoarthritis (MIA) model in rat knee; format: in vivo
Experimental: Osteoarthritis was induced by intra-articular (i.a.) injection of MIA solution in the rat knee joint as follows: Briefly, rats were anesthetized with isoflurane and given a single i.a. administration of 2 mg of MIA dissolved in saline through the intrapatellar ligament of the right knee. MIA was administered in a volume of 50 μL. Basal readings were established using a group of control rats injected with 10% ethanol in water. Rats were randomized by initial body weight to groups of 6 or 7. After MIA injection, the MIA groups began treatment with either vehicle, or a test compound at a preset dose regime for a period of 28 days. Clinical observations were recorded, including body weight, joint swelling, and weight bearing, on pre-induction day (day 0), day 3, 5, 7, 14, 21 and/or 28. At the end of the study, the animals were euthanized by CO2 and sacrificed. Joint samples including the tibia and femur were sectioned in the coronal plane and stained using both H&E and Safranin-O. Knee joints were examined and scored for cartilage degeneration, the presence of osteophytes, the amount and extent of calcified cartilage and subchondral bone damage, and the amount of synovial membrane inflammation using the Osteoarthritis Research Society International (OARSI) scoring system put forth in 2010 (Kraus, V. B. et al., Osteoarthritis Cartilage, 2010, Suppl 3:S35-52).
Studies of compound 16 in the MIA model were conducted as described above.

[5] = humans, cited from earlier work
[6] = rats; cited from earlier work
[7] = G2, histopathology after 4 weeks of dosing

- AUC0-t [1]: (—)
- AUC0-∞ [1]: (—)
- CLz/F [1]: (—)
- Cmax [1]: (—)
- Tmax [1]: (—)
- Vz/F [1]: (—)
- t1/2z [1]: (—)
SMILES: CCCC(=O)N[C@H]1C(O)O[C@H](COC(=O)NCCCC(=O)O)[C@@H](O)[C@@H]1O (stereo partly drawn) [Compound 94, 2-N-butyryl-6-O-((3-carboxy-1-propyl)aminocarbonyl)-D-glucosamine]

SMILES: CCCC(=O)N[C@H]1C(O)O[C@H](CO)[C@@H](O)[C@@H]1O (stereo partly drawn) [GlcNBu, N-butyryl glucosamine]
- half-life [2]: about 20 min
- subchondral bone structure [3]: preserved strikingly
- bone mineral and some biomechanical properties (OVX rat): preserves

- AUC0-t [1]: (—)
- AUC0-∞ [1]: (—)
- CLz/F [1]: (—)
- Cmax [1]: (—)
- Tmax [1]: (—)
- Vz/F [1]: (—)
- t1/2z [1]: (—)
SMILES: CCCC(=O)N[C@H]1C(OCc2ccccc2)O[C@H](CO)[C@@H](O)[C@@H]1O (stereo partly drawn) [Compound 75, 1-O-benzyl-2-N-butyryl-D-glucosamine]

- AUC0-t [1]: 1.757 µg·h/mL
- AUC0-∞ [1]: 1.942 µg·h/mL
- CLz/F [1]: 10 L/h/kg
- Cmax [1]: 1.11 µg/mL
- Tmax [1]: 2 h
- t1/2z [1]: 1 h
SMILES: CCCC(=O)N[C@H]1C(O)O[C@H](CO)[C@@H](O[C@@H]2O[C@H](CO)[C@@H](O)[C@H](O)[C@H]2O)[C@@H]1O (stereo partly drawn) [Compound 89, 2-N-butyryl-4-O-(D-glucopyranosyl)-D-glucosamine]

- AUC0-t [1]: 0.662 µg·h/mL
- AUC0-∞ [1]: 0.889 µg·h/mL
- CLz/F [1]: 22 L/h/kg
- Cmax [1]: 0.426 µg/mL
- Tmax [1]: 0 h
- t1/2z [1]: 1 h
SMILES: CCCC(=O)N[C@@H]1C(OC(=O)CCC)O[C@H](COC(=O)CCC)[C@@H](OC(=O)CCC)[C@@H]1O (stereo partly drawn) [Compound 74, 2-N-1,4,6-tri-O-tetrabutyryl-D-glucosamine]

SMILES: CCCC(=O)N[C@H]1C(O)O[C@H](COC(=O)CCC)[C@@H](OC(=O)CCC)[C@@H]1O (stereo partly drawn) [Compound 16, 2-N-4,6-O-tributyryl-D-glucosamine]
- degeneration changes of chondrocyte clustering, G2 compared with G1 [4]: significantly lower; also recorded: significantly less
- values in all histology parameters, G2 versus G1 [4]: lower
- weight bearing on the right paw, G2 compared with G1 ([4]; Day 3 and Days 14-28): significantly increased; also recorded: significantly more
- Weight bearing (right paw, %), mean ([4]; Day 3): 36.68* %
- Weight bearing (right paw, %), mean ([4]; Day 5): 39.76%
- Weight bearing (right paw, %), mean ([4]; Day 7): 40.68%
- Weight bearing (right paw, %), mean ([4]; Day 14): 42.71* %
- Weight bearing (right paw, %), mean ([4]; Day 21): 43.73** %
- Weight bearing (right paw, %), mean ([4]; Day 28): 44.06** %
- Weight bearing (right paw, %), mean ([4]; Pre-injection baseline): 49.55%
- Chondrocyte clustering (0-4), mean [4, 7]: 1.17*
- Degenerative changes in cartilage (0-4), mean [4, 7]: 1.17
- Inflammatory response in subchondral bone region (0-4), mean [4, 7]: 0.00
- Nature of predominant tissue (0-4), mean [4, 7]: 1.00
- Neo-vascularization (0-4), mean [4, 7]: 0.00
- Osteophytes (0-4), mean [4, 7]: 1.17
- Structural integrity (0-4), mean [4, 7]: 1.17
- Surface regularity (0-4), mean [4, 7]: 1.67
- Total scoring, mean [4, 7]: 7.33
- Weight bearing, mean (MIA-induced OA rat model; MIA rats, Group 2, 234 mg/kg, Day 3): 32.07%
- Weight bearing, mean (MIA-induced OA rat model; MIA rats, Group 2, 234 mg/kg, Day 5): 35.76** %
- Weight bearing, mean (MIA-induced OA rat model; MIA rats, Group 2, 234 mg/kg, Day 7): 37.72%
- Weight bearing, mean (MIA-induced OA rat model; MIA rats, Group 2, 234 mg/kg, Day 14): 40.86%
- Weight bearing, mean (MIA-induced OA rat model; MIA rats, Group 2, 234 mg/kg, Day 21): 44.12%
- Weight bearing, mean (MIA-induced OA rat model; MIA rats, Group 2, 234 mg/kg, Day 28): 45.90%
- Weight bearing, mean (MIA-induced OA rat model; MIA rats, Group 2, 234 mg/kg, Pre-Injection (Day 0) baseline): 50.49%
- Weight bearing, mean (MIA-induced OA rat model; MIA rats, Group 3, 468 mg/kg, Day 3): 34.56%
- Weight bearing, mean (MIA-induced OA rat model; MIA rats, Group 3, 468 mg/kg, Day 5): 37.40** %
- Weight bearing, mean (MIA-induced OA rat model; MIA rats, Group 3, 468 mg/kg, Day 7): 39.23%
- Weight bearing, mean (MIA-induced OA rat model; MIA rats, Group 3, 468 mg/kg, Day 14): 41.68* %
- Weight bearing, mean (MIA-induced OA rat model; MIA rats, Group 3, 468 mg/kg, Day 21): 44.25%
- Weight bearing, mean (MIA-induced OA rat model; MIA rats, Group 3, 468 mg/kg, Day 28): 44.98%
- Weight bearing, mean (MIA-induced OA rat model; MIA rats, Group 3, 468 mg/kg, Pre-Injection (Day 0) baseline): 50.25%
- weight bearing on the back-right leg versus vehicle (MIA-induced OA rat model; MIA rats, day 5, all compound-treated groups (234 and 468 mg/kg)): significant increases
- weight bearing versus vehicle (MIA-induced OA rat model; MIA rats, high dose (G3, 468 mg/kg), day 14): significant increases
- osteophytes versus vehicle group (MIA-induced OA rat model; MIA rats, high dose group (468 mg/kg), histology): significantly decreased
- all other mean values for each histological parameter (MIA-induced OA rat model; MIA rats, high dose treated group (468 mg/kg)): clear trend of lowering
- articular cartilage degeneration (MIA-induced OA rat model; MIA-induced OA rat model): slowed

- AUC0-t [1]: (—)
- AUC0-∞ [1]: (—)
- CLz/F [1]: (—)
- Cmax [1]: (—)
- Tmax [1]: (—)
- Vz/F [1]: (—)
- t1/2z [1]: (—)
SMILES: CCCC(=O)N[C@H]1C(OCc2ccccc2)O[C@H](CO)[C@@H](O)[C@@H]1OCc1ccccc1 (stereo partly drawn) [Compound 76, 2-N-butyryl-1,3-di-O-benzyl-D-glucosamine]

SMILES: N[C@H]1C(O)O[C@H](CO)[C@@H](O)[C@@H]1O (stereo partly drawn) [Glucosamine, glucosamine]
- serum levels ([5]; very large doses, after oral or IV administration): cannot be detected
- oral bioavailability (F) [6]: 0.19-0.21

- AUC0-t [1]: (—)
- AUC0-∞ [1]: (—)
- CLz/F [1]: (—)
- Cmax [1]: (—)
- Tmax [1]: (—)
- Vz/F [1]: (—)
- t1/2z [1]: (—)
SMILES: CCCC(=O)N[C@H]1C(O)O[C@H](COC(=O)CCC(=O)O)[C@@H](OC(=O)CCC(=O)O)[C@@H]1O (stereo partly drawn) [Compound 79, 2-N-butyryl-4,6-di-O-(4-hydroxy-4-oxo-butyryl)-D-glucosamine]

SMILES: CC(=O)N[C@H]1C(O)O[C@H](CO)[C@@H](O)[C@@H]1O (stereo partly drawn) [N-acetylglucosamine]
- half-life compared with glucosamine ([5]; polyvalent or monovalent form): longer
